Test results: patent US9211278B2, “Composition containing arylnaphthalene lignan derivative for preventing and/or treating dementia” (KOREA INSTITUTE OF SCIENCE AND TECHNOLOGY, priority 2012, dated 2015)

Key:
[1] = system: alpha-secretase product (sAPPα); assay: Alpha-secretase product (sAPPα) production, Western blotting; assay type: cell-based, human; details: 8 hours, concentrations of FIG. 5
Experimental: The test result confirmed that Justicidin A (C1) obtained in Example 2 and 5-methoxyJusticidin A increased alpha-secretase product (sAPPα). Specifically, the produced amount of sAPPα was measured by treating the cultured cell line (the HeLa cell line transfected with the amyloid precursor protein (APP) driven from human) with Justicidin A (S62-C1) or 5-methoxyJusticitdin A (S62-C2) at a concentration of FIG. 5, culturing it for 8 hours, and measuring the produced amount of sAPPα according to the Western blotting. The negative control was the group with no treatment of Justicidin A or 5-methoxyJusticidin A.

[2] = system: beta-amyloid (Aβ40, Aβ42) formation; assay: Beta-amyloid (Aβ40, Aβ42) formation, ELISA, in APP-transfected HeLa cells; assay type: cell-based, human; details: for inhibition of beta-amyloid (Aβ40, Aβ42) formation: HeLa-APP cells, various concentrations (FIGS. 1, 2, 6); for inhibition at 5 µg/mL / inhibition at 1 µM: Homo sapiens, HeLa, read-out: inhibitory effect on the beta-amyloid; for inhibition at 5 µg/mL: 5 μg/ml
Experimental: To test the inhibitory effect of Justicidin A (C1) obtained in Example 2 on the beta-amyloid formation, HeLa cell line transfected with the amyloid precursor protein (APP) driven from human was cultured in DMEM solution (Cat. #11995, Gibco, USA) for use. The cell line was received from Prof. Tae-Wan Kim at Department of Pathology, Columbia University Medical Center, New York, N.Y. 10032, USA.
Specifically, the Justicidin A of Example 2 was added into the cell line culture at the amount indicated in FIG. 1, and then the produced amount of be-amyloid (Aβ40, Aβ42 was measured. Human β-Amyloid[1-40](Aβ40), Human β-Amyloid [1-42](Aβ42) Colorimetric ELISA kit (#KHB3482 and #KHB3442; BioSource International, Inc., U.S.A.) were used to quantify two types of beta-amyloid (Aβ40, Aβ42).
The 5-methoxyJusticidin A (C2) of Example 2 was added into the cell line culture at the amount indicated in FIG. 2, and then the produced amount of be-amyloid was measured according to the method of Example 1.1. The group which was not treated with 5-methoxyjusticidin A was used as a negative control.
The compounds were used at the amount of FIG. 6, and measured for the beta-amyloid (Aβ40, Aβ42) formation according to the same method of Experimental Example <1-1>. The group treated with Justicidin A(C1) was a positive control and the group with no treatment was a negative control.

| Structure (SMILES) | inhibition of beta-amyloid (Aβ40, Aβ42) formation [2] | inhibition at 1 µM [2] [%] | also measured |
| --- | --- | --- | --- |
| COc1cc2c(-c3ccc4c(c3)OCO4)c3c(c(OC)c2c(OC)c1OC)COC3=O [5-methoxyJusticidin A] | inhibited the beta-amyloid (Aβ40, Aβ42) formation at a concentration-dependent manner | – | formation of alpha-secretase product (sAPPα) [1]: activated the formation of alpha-secretase product (sAPPα) |
| COc1ccc(-c2c3c(c(O)c4cc5c(cc24)OCO5)COC3=O)cc1OC [Chinensinaphthol] | – | – | inhibition at 5 µg/mL [2]: ~50% |
| COc1c2c(c(-c3ccc4c(c3)OCO4)c3cc4c(cc13)OCO4)COC2=O [Justicidin D, reference compound] | – | ~20 | – |
| COc1c2c(c(-c3ccc4c(c3)OCO4)c3cc4c(cc13)OCO4)C(=O)OC2 [Justicidin F, reference compound] | – | ~20 | – |
| COc1c2c(cc3c(-c4ccc5c(c4)OCO5)c4c(cc13)C(=O)OC4)OCO2 [Justicidin G, reference compound] | – | ~20 | – |
| COc1ccc(-c2c3c(c(OC)c4cc5c(cc24)OCO5)C(=O)OC3)cc1OC [retrochinensinaphthol methyether, Retrochinensinaphthol methylether] | did not show nearly the inhibition | – | – |
| COc1ccc(CC2COC(=O)/C2=C/c2ccc3c(c2)OCO3)cc1OC (stereo not drawn) [succilactone] | did not show nearly the inhibition | – | inhibition at 5 µg/mL [2]: ~10% |
